Measurements from the NIST ThermoML archive (doi:10.1021/je800945e).
± gives the expanded uncertainty stated by the source.

Conditions: Crystal; visual observation

## Nc1cccnc1 [β-aminopyridine]
  Normal melting temperature: 64.50 ± 0.5 °C
